From ChEMBL document CHEMBL1137093, “Synthesis, receptor binding and functional studies of mesoridazine stereoisomers” (Bioorg Med Chem Lett, 2004)
Where “and” joins values, the source holds several entries; their conditions need not be identical. Equal values may be shown once.

Experiments:
[1] = target: T1, 5-hydroxytryptamine receptor 1A (Homo sapiens, UniProt P08908); assay: Binding affinity towards human 5-hydroxytryptamine 1A receptor was determined by using [3H]8-OH-DPAT as radioligand
T1 sequence (P08908 whole entry): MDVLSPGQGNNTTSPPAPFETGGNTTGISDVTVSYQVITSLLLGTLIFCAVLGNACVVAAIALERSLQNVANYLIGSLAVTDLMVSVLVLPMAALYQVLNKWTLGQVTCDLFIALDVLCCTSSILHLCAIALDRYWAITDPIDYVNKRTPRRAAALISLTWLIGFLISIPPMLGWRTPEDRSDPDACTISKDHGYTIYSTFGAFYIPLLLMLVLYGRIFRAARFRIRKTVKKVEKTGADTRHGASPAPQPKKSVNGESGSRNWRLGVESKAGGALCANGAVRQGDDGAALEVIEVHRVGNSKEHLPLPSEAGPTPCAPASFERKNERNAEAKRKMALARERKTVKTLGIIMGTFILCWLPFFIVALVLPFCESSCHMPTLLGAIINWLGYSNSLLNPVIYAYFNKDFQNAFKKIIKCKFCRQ

D(1A) dopamine receptor [2] = target: T2, D(1A) dopamine receptor (Homo sapiens, UniProt P21728)
T2 sequence (P21728 whole entry): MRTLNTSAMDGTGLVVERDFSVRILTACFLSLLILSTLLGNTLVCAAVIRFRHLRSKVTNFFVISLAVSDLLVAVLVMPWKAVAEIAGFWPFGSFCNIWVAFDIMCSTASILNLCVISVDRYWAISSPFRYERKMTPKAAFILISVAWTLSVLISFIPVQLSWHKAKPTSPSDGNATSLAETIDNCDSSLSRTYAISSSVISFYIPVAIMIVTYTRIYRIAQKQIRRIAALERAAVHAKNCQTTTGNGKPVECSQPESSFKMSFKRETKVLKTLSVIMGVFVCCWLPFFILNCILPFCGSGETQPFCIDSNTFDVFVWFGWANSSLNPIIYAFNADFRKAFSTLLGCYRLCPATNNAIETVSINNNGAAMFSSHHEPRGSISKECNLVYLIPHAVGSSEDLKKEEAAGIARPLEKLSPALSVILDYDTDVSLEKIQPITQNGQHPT
Description: Binding affinity towards human D1 dopamine receptor was determined by using [3H]-SCH- 23390 as radioligand

D(1A) dopamine receptor [3] = target: T2, D(1A) dopamine receptor; assay: Antagonism of D1 dopamine receptor of human was determined in C6D1 low-density cells by using cyclic AMP assay
D(3) dopamine receptor = D(3) dopamine receptor (Homo sapiens, UniProt P35462)
Chain of D(3) dopamine receptor (P35462 whole entry): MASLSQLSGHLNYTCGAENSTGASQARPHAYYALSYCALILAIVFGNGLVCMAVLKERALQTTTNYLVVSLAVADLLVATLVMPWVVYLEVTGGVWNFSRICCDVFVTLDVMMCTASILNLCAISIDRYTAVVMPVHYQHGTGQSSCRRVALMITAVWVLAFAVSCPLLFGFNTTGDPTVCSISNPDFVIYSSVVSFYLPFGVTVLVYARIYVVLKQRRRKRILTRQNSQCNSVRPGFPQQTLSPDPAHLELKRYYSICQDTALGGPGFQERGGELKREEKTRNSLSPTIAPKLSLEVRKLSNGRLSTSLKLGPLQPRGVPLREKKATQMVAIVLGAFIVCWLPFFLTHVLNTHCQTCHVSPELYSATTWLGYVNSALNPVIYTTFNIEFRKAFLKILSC
Description: Binding affinity towards human D3 dopamine receptor was determined by using [3H]YM-09151-2 as radioligand

[4] = Antagonism was determined as concentration required to inhibit quinpirole-induced mitogenesis in CHOp cells
[5] = target: T3, 5-hydroxytryptamine receptor 2A (Rattus norvegicus, UniProt P14842); assay: Binding affinity towards rat 5-hydroxytryptamine 2A receptor was determined by using [3H]-ketanserin as radioligand
T3 sequence (P14842 whole entry): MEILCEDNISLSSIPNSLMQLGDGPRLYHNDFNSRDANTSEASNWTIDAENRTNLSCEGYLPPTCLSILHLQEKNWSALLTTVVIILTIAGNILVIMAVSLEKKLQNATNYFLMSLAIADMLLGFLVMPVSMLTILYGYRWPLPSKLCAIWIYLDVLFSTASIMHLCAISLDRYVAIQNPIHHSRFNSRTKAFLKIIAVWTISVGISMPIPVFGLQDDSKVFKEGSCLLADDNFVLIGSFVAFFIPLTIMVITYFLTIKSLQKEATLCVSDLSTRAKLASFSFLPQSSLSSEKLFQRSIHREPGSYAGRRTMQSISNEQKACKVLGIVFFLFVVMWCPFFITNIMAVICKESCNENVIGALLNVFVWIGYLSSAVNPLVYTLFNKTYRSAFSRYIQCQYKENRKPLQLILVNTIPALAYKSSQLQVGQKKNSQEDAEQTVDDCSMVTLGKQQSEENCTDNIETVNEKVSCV

D(2) dopamine receptor [6] = target: T4, D(2) dopamine receptor (Homo sapiens, UniProt P14416)
T4 sequence (P14416 whole entry): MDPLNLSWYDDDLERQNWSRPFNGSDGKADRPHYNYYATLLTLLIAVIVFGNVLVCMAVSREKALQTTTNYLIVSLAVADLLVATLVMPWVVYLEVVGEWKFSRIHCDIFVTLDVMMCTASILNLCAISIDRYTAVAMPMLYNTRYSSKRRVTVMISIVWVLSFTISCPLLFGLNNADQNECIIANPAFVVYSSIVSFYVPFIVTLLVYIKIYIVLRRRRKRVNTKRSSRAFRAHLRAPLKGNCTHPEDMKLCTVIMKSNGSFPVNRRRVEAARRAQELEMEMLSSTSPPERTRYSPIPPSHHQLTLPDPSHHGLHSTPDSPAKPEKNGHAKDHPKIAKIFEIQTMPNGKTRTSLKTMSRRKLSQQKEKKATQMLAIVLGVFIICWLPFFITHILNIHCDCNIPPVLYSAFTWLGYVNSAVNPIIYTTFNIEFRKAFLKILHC
Description: Binding affinity towards human D2 dopamine receptor was determined by using [3H]YM-09151-2 as radioligand

[7] = target: T5, 5-hydroxytryptamine receptor 2C (Rattus norvegicus, UniProt P08909); assay: Binding affinity towards rat 5-hydroxytryptamine 2C receptor was determined by using [3H]mesulergine as radioligand
T5 sequence (P08909 whole entry): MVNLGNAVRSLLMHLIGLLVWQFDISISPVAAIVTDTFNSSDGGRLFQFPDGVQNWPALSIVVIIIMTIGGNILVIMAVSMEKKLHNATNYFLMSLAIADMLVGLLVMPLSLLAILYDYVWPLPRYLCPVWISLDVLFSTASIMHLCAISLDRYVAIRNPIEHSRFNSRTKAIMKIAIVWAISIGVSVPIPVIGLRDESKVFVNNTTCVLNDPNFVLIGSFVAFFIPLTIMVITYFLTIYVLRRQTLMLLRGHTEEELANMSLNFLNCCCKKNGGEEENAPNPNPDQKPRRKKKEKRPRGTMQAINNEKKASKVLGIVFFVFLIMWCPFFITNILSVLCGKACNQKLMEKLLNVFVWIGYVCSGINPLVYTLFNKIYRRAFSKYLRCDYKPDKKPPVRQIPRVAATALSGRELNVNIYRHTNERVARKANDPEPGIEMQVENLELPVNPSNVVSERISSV

D(2) dopamine receptor [8] = target: T4, D(2) dopamine receptor; remark: listed apart in the source
Description: Concentration required to inhibit [3H]YM-09151-2 binding to human D2 dopamine receptor

[9] = target: T3, 5-hydroxytryptamine receptor 2A; assay: Antagonism of 5-hydroxytryptamine 2A receptor was determined using rat aortal strip contraction assay
[10] = target: 5-hydroxytryptamine receptor 2A (Rattus norvegicus) (UniProt P14842)
Chain of 5-hydroxytryptamine receptor 2A (Rattus norvegicus) (P14842 whole entry): as the sequence (P14842 whole entry) above

D(2) dopamine receptor [11] = target: T4, D(2) dopamine receptor; remark: listed apart in the source
D(2) dopamine receptor [12] = target: T4, D(2) dopamine receptor; remark: listed apart in the source
Description: High binding affinity towards human D2 dopamine receptor was determined by using [3H]YM-09151-2 as radioligand

SMILES | Ki [1] [nM] | Ki (D(1A) dopamine receptor [2]) [nM] | IC50 (D(1A) dopamine receptor [3]) [nM] | Ki (D(3) dopamine receptor) [nM] | IC50 [4] | Ki [5] [nM] | Ki (D(2) dopamine receptor [6]) [nM] | Ki [7] [nM] | IC50 (D(2) dopamine receptor [8]) [nM] | Kb [9] [nM] | Ke [10] [nM] | Ki (D(2) dopamine receptor [11]) [nM] | Ki (D(2) dopamine receptor [12]) [nM]
CN1CCCC[C@H]1CCN1c2ccccc2Sc2ccc([S@](C)=O)cc21 | 395 | 620 | 1250 | 197 | 232 nM and 408 nM | 414 | 426 | 410 |  |  |  |  | 
CN1CCCC[C@@H]1CCN1c2ccccc2Sc2ccc([S@@](C)=O)cc21 | 64 | 317 | 460 | 26 | 4 nM and 16 nM | 19 |  | 112 | 63 | 2.51 | 2.5 | 1840 | 1.2
CN1CCCCC1CCN1c2ccccc2Sc2ccc([S+](C)[O-])cc21 (single isomer, unassigned; 2) [listing 1 of 2 here] | 105 | 103 | 137 | 23 | 10 nM and 35 nM | 55 |  | 412 | 77 | 6.31 |  | 1540 | 2.2
CN1CCCCC1CCN1c2ccccc2Sc2ccc([S+](C)[O-])cc21 (single isomer, unassigned; 2) [listing 2 of 2 here] |  |  |  |  |  |  |  |  |  |  | 7 |  | 
CN1CCCCC1CCN1c2ccccc2Sc2ccc([S+](C)[O-])cc21 (single isomer, unassigned; 3) [listing 1 of 2 here] | 349 | 1960 |  | 95 | 161 nM and 256 nM | 112 | 304 | 704 | 837 | 25.1 |  |  | 
CN1CCCCC1CCN1c2ccccc2Sc2ccc([S+](C)[O-])cc21 (single isomer, unassigned; 3) [listing 2 of 2 here] |  |  |  |  |  |  |  |  |  |  | 28 |  | 
